Assay [1] deals with IGrov-1 ovarian carcinoma cells. Description: In vitro cytotoxicity, methylene blue staining, 72 h. In kind it is cell-based, human. To be noted: IGrov-1 cells, 72 hours at 37° C. As for the experimental part:
(§1) For comparison, liposomes with entrapped doxorubicin with ammonium sulfate gradient and a coating of polyethyleneglycol (PEG) (available under the tradename DOXIL®), liposomes with the mitomycin C prodrug conjugate incorporated into the lipid bilayer and a coating of PEG (sometimes referred to in the literature by the tradename PROMITIL®) were also evaluated in the cell lines, along with free doxorubicin and liposomes with encapsulated doxorubicin with ammonium alendronate gradient and a coating of PEG (U.S. 2014/0328899, incorporated by reference herein).
(§2) In the cytotoxicity assay, cells were seeded in 96-multiwell plates. After overnight incubation, the drugs or liposome compositions were added at various concentrations and cells were incubated further for a total exposure of 72 hrs. Cell growth was evaluated colorimetrically with methylene blue staining and growth rates and IC50 values were calculated as known in the literature.

The test system of assay [2] is T24 bladder cancer carcinoma cells. The assay is described as above. In kind it is cell-based, human. To be noted: 72 hours at 37° C. The procedure:
as §1, §2

Assay [3] relates to N-87 gastric carcinoma cells. The description is as above. In kind it is cell-based, human. To be noted: N-87 cells, 72 hours at 37° C. The procedure:
as §1, §2

The subject of assay [4] is multidrug resistant M109R lung carcinoma cells. Described as above. In kind it is cell-based. To be noted: 72 hours at 37° C. As for the experimental part:
as §1, §2

Assay [5] deals with NCI/ADR cells. The assay is described as above. In kind it is cell-based. To be noted: 72 hours at 37° C. The procedure:
as §1, §2

Assay [6] deals with T-24 bladder cancer cells. Description: Cell uptake of doxorubicin and mitomycin C prodrug conjugate. In kind it is cell-based, human. The note with it: T-24 cells, 3 hours of incubation; doxorubicin 6.5 μmoles/L (3.7 μg/mL), MLP 5 μmoles/L (5.7 μg/mL).
Procedure: In brief, the liposomal compositions or free doxorubicin were incubated for 3 hours with the cell lines at a doxorubicin concentration of 6.5 μmoles/L (3.7 μg/mL) and final mitomycin C lipid prodrug conjugate concentration of 5 μmoles/L (5.7 μg/mL).
Cell uptake studies were done as follows. 1×10^6 cells were incubated for 3 hours with the various test agents at a doxorubicin concentration of 6.5 μmoles/mL (3.7 μg/mL) and final mitomycin C lipid prodrug conjugate concentration of 5 μmoles/mL (5.7 μg/mL) and a phospholipid concentration similar to that of liposomes with entrapped doxorubicin (40 nanomoles/mL).
The subject of assay [7] is 4T1 breast tumor. Description: Antitumor activity in mouse 4T1 breast tumor model. In kind it is in vivo. The note with it: BALB/c mice, single i.v. dose eight days after inoculation. As for the experimental part:
BALB/c mice were inoculated intravenously with 100,000 cells 4T1 breast cancer cells to produce tumors. Three were approximately eight tumor-bearing mice in each of the treatment groups.
Eight days after inoculation, the test formulations were administered intravenously.

[8] abbreviates: as doxorubicin concentration, read-out: IC50 of doxorubicin.
Where [9] appears, read: as mitomycin C concentration, read-out: IC50 of Mitomycin C.

pIC50: −log10 of the molar value. Like-named read-outs stand apart in the source and are kept apart here.

In the case of `COc1cccc2c1C(=O)c1c(O)c3c(c(O)c1C2=O)C[C@@](O)(C(=O)CO)C[C@@H]3O[C@H]1C[C@H](N)[C@H](O)[C@H](C)O1` [free doxorubicin, doxorubicin], the pIC50 in assay [1] (setting [8]) is 5.96; in assay [2] (as doxorubicin concentration, read-out: C50 of doxorubicin), 7.00; in assay [3] (setting [8]) it was 6.72; in assay [4] (setting [8]), 5.06; in assay [5] (setting [8]), 5.60. The “Doxorubicin Concentration” value in assay [6] is 739 ng/10^6 cells. Also, in assay [7], the “time after treatment at which tumor approached 5.5 mm” value is given as 10 days. In assay [7] (doses in Example 7), the “tumor growth (FIG. 15), in words” value is “continued and rapid tumor growth”.
For `CO[C@@]12[C@H](COC(N)=O)C3=C(C(=O)C(C)=C(N)C3=O)N1C[C@@H]1N[C@@H]12` [free mitomycin C, mitomycin C], the pIC50 in assay [1] (setting [9]) was 6.15; in assay [2] (setting [9]) it was 7.30; in assay [3] (setting [9]) it was 6.74; in assay [4] (setting [9]) it was 6.52; in assay [5] (setting [9]), 6.40.

For the origin of these results see patent publication US10617672B2, “Liposome composition co-encapsulating doxorubicin and a prodrug of mitomycin C” (LIPOMEDIX PHARMACEUTICALS LTD., priority 2015, dated 2020).
